Experimental data published in patent EP4610267A1, “CYCLIC DINUCLEOTIDES AND CONJUGATES THEREOF WITH ANTIBODIES” (priority 2024, dated 2025).
pEC50: −log10 of the molar value.

Assays:
STING Q = test: 293T STING digitonin reporter assay (Q haplotype); type: cell-based, human; conditions: digitonin permeabilised 293T reporter cells
Procedure: (§1) Digitonin Assay with 293T Reporter Cells. The generation of 293T reporter cells stably expressing different STING protein haplotypes (WT, HAQ, REF, AQ, or Q) was described previously (Novotna et al, J. Med. Chem. 2019,62, 10676). The cells were seeded at a density of 250 000 cells per cm^2 into 96 well white poly(D-lysine) coated plates in 100 µL of DMEM with high glucose supplemented with 10% heat inactivated FBS. Next day, the medium was removed, and compounds were added in 3-fold serial dilutions in a digitonin buffer containing 50 mM HEPES (pH 7.0), 100 mM KCl, 3 mM MgClz, 0.1 mM DTT, 85 mM sucrose, 0.2% (w/w) BSA, 1 mM ATP, 0.1 mM GTP, and 10 µg/mL digitonin A. After 30 min incubation at 37 °C with 5% CO2, the digitonin buffer was removed, cells were washed once with 100 µL of the cultivation medium, and 100 µL of fresh medium was added to each well. The plates with cells were further incubated for 5 h at 37 °C with 5% CO2. Thereafter, 50 µL of the medium was removed, and 30 µL of Bright-Glo Luciferase Assay System reagent was added to each well. […] Nonlinear regression curve fit with standard slope was used for EC50 value calculations. The EC50 value represents CDN concentration that gives half-maximal response of firefly luciferase in the 293T reporter assay.

[1] = system: Her2 expressing HCC1954 breast tumor xenograft; test: Her2 expressing HCC1954 breast tumor xenograft model; type: in vivo, SCID-beige mice; conditions: single i.v. dose 1.7 mg/kg (40x higher payload dose than in 2.5 mg/kg mAb3-3.3) (Fig. 8)
Procedure: For in vivo testing in the Her2 expressing HCC1954 breast cancer xenograft mouse model, female SCID-beige mice at 8 to 12 weeks of age (purchased from Charles River Lab) were used for implantation. HCC1954 cells (obtained from ATCC) were cultured in RPMI medium supplemented with 10% fetal bovine serum at 37°C in a humidified incubator with 5% CO2 On the day of implantation, 1 × 10^7 HCC1954 cells were re-suspended in 100µL RPMI1640 serum free media containing 50% Matrigel and implanted subcutaneously in the right flank. After implant, tumors were measured by caliper and mice were weighed two times per week once tumors were palpable. Tumor volumes were calculated from caliper measurements using formula (L × W^2)/2. Animals were pair matched when tumor reached volume 100 - 150 mm^3 (designated as day 1). Two i.v. injections were performed on day 1 and 8 (D1 and D8) of 5mg/kg of anti-Her2 mAbl-3.4 (DAR 3.9), 5mg/kg mAbl-3.11 (DAR 3.9), 5mg/kg isotype mAb-3.4 (DAR 3.9), 5mg/kg anti-Her2 mAb1 or PBS vehicle. […]
Compound 3.13 was conjugated to engineered light chain C110 and heavy chain C375 of anti-Her2 mAb (mAb3) as described above. […] After implant, tumors were measured by caliper and mice were weighed two times per week once tumors were palpable. Tumors were measured in two dimensions and tumor volumes were calculated from caliper measurements using formula (L × W^2)/2. […]

[2] = Pharmacokinetics of Compound 2.2 applied i.v.; type: in vivo; conditions: mice (Balb/c), 5mg/kg i.v.
Procedure: Pharmacokinetics of Compound 2.2 applied I.V. at dose 5mg/kg was determined in Balb/c mice. Plasma samples were precipitated with methanol (final concetration 70%) spiked with internal standard, the precipited proteins were removed by centrigugation and supernatant was evaporated. The analytes were dissolved in 100 µL of 10 mM CH3COONH4 by vortexing for 5 min. Compound 22 along with the corresponding internal standard were separated and detected using a liquid chromatograph Exion LC AD with tandem mass spectrometer QTrap 6500+ (both Sciex) equipped with a separation column Acquity BEH C18 1.7 µm, 50 × 2.1 mm, as well as a guard column 1.7 µm C18, 5 × 2.1 mm (both Waters). The mobile phase (A) used for separation consisted of 10 mM CH3COONH4 in deionized water, while mobile phase (B) was composed of 10 mM CH3COONH4 in methanol. […] Analytes were monitored through their specific multiple reaction monitoring (MRM) transitions by utilizing electrospray ionization (ESI) in a positive mode with the following parameters: 50 msec dwell time, entrance potential 10 V, ion source temperature 350°C, ion spray voltage 5.5 kV, curtain gas (40 psi), GS1 gas (50 psi), and GS2 gas (50 psi). Quantification of Compound 2.2 was conducted using a weighted calibration curve (1/x^2) with a structurally similar internal standard.

STING AQ = molecular target: T1, STING AQ (Homo sapiens, UniProt Q86WV6, G230A/H232R/R293Q); test: 293T STING digitonin reporter assay (AQ haplotype); type: cell-based; conditions: digitonin permeabilised 293T reporter cells
T1 construct: expressed in transfected cells
Procedure: as §1

T1 sequence (Q86WV6 whole entry G230A/H232R/R293Q): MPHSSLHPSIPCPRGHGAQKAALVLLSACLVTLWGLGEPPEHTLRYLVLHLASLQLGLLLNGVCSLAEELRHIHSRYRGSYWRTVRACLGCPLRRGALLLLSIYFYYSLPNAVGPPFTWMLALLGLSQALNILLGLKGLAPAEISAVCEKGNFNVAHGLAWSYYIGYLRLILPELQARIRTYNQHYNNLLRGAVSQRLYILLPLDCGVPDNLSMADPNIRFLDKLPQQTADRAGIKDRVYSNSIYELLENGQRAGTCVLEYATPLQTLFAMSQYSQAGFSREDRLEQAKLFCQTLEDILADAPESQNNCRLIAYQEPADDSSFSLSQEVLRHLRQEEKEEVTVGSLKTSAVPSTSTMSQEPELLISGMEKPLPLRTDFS

In the case of Nc1ncnc2c1ncn2[C@@H]1O[C@@H]2OCP(=O)(S)O[C@@H]3[C@H](F)[C@@H](COP(=O)(S)OC[C@H]2[C@H]1F)O[C@H]3n1cnc2c(=O)[nH]cnc21 (single isomer, unassigned) [Compound 2.2], the pEC50 (STING Q) was 7.10, the “effect on HCC1954 tumors” value [1] was “only triggered tumor growth inhibition” and the half-life [2] was “less than 10 minutes”. It also gave a pEC50 (STING AQ) of 7.52.
